Legend:
[1] = biological target: T1, Neuropeptide Y receptor type 1 (Mus musculus, UniProt Q04573)
T1 sequence (Q04573 whole entry): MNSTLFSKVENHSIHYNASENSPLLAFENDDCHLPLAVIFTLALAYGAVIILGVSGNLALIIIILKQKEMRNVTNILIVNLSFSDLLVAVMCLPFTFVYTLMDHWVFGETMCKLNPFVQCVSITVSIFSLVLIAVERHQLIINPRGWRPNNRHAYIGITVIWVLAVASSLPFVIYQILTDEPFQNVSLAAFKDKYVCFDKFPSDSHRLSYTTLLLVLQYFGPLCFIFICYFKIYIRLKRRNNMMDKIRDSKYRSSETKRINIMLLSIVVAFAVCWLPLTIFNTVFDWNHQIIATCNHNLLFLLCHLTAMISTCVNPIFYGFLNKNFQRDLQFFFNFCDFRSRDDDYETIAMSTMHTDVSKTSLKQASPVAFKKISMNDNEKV

[2] = biological target: T2, Neuropeptide Y receptor type 5 (Mus musculus, UniProt O70342)
T2 sequence (O70342 whole entry): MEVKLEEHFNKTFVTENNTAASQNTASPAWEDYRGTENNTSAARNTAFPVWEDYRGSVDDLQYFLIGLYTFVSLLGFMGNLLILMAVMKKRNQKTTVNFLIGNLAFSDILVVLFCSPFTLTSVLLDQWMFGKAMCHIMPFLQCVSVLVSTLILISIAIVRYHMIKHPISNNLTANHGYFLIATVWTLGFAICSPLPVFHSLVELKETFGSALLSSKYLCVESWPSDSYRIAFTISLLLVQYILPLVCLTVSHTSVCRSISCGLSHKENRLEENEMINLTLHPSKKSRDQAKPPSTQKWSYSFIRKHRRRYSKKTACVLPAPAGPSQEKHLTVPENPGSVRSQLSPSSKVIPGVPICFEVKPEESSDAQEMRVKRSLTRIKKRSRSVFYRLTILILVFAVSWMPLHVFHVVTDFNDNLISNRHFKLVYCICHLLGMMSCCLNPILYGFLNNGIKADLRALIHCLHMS

For CC[C@H](C)[C@H](NC(=O)[C@H](Cc1ccc(O)cc1)NC(=O)[C@H](CCCNC(=N)N)NC(=O)[C@H](CCCNC(=N)N)NC(=O)[C@H](CC(C)C)NC(=O)[C@H](CC(=O)O)NC(=O)[C@H](C)NC(=O)[C@H](C)NC(=O)[C@H](Cc1ccc(O)cc1)NC(=O)[C@H](CCC(N)=O)NC(=O)[C@H](C)NC(=O)[C@H](CCSC)NC(=O)[C@H](CCC(N)=O)NC(=O)[C@H](CCC(=O)O)NC(=O)[C@@H]1CCCN1C(=O)[C@@H](NC(=O)[C@H](C)NC(=O)[C@H](CC(N)=O)NC(=O)[C@H](CC(=O)O)NC(=O)CNC(=O)[C@@H]1CCCN1C(=O)[C@H](Cc1ccc(O)cc1)NC(=O)[C@@H](NC(=O)[C@@H]1CCCN1C(=O)[C@H](CCC(=O)O)NC(=O)[C@H](CC(C)C)NC(=O)[C@@H]1CCCN1C(=O)[C@H](C)N)C(C)C)[C@@H](C)O)C(=O)N[C@@H](CC(N)=O)C(=O)N[C@@H](CCSC)C(=O)N[C@@H](CC(C)C)C(=O)N[C@H](C(=O)N[C@@H](CCCNC(=N)N)C(=O)N1CCC[C@H]1C(=O)N[C@@H](CCCNC(=N)N)C(=O)N[C@@H](Cc1ccc(O)cc1)C(N)=O)[C@@H](C)O [CAS_59763-91-6], the Ki [1] was 122 nM and the Ki [2] was 1000 nM.
